Data reported in patent US20090155797A1, “Methods For Generating Enhanced Antibody-Producing Cell Lines With Improved Growth Characteristics” (priority 2002, published 2009).

System: H34 cells
Assay: Antibody production by ELISA from H34 hybridoma cells incubated with protease inhibitor
Format: cell-based, mouse
Settings: H34 cells incubated 1-3 days with 4 mM AEBSF in 96 well plates, supernatant ELISA; untreated H34 4.3 ug/ml

**Q.** How did the “ANTIBODY PRODUCTION TREATED” value turn out when `NCCc1ccc(S(=O)(=O)F)cc1` [AEBSF, 4-(2-aminoethyl)-benzenesulfonyl floride] was run?
**A.** 0.031 µg/mL
